# Measurements from US8604085B2, “Bupropion hydrobromide polymorphs” (Valeant International Bermuda, priority 2008, dated 2013).
# What was measured:
# Assay type in all cases: physicochemical
# [1] = Forced degradation studies of bupropion hydrobromide and bupropion hydrochloride in closed bottles; conditions: about 40 degrees C., about 75% relative humidity
# Protocol: Further stability tests were performed by directly comparing bupropion hydrobromide and bupropion hydrochloride salts in forced degradation studies. […] At specified times, the material in the bottles was analyzed for the presence of degradation products and % potency (% assay).
# [2] = Forced degradation studies of the API's in the presence of standard excipients; conditions: with standard excipients; about 24 and about 48 hours at about 55° C., about 55° C. and 100% relative humidity, about 105° C.
# Protocol: Forced degradation studies were also performed on bupropion hydrobromide and bupropion hydrochloride API's in the presence of standard excipients used in pharmaceutical formulations.
# [3] = TGA and DSC characterization
# Protocol: The PXRD diffraction patterns were obtained on X-ray powder diffraction PANalytical X′pert Pro equipped with X′Celerator, in a measurement range between 3 and 40 2 theta. All the DSC experiments were performed with a DSC 7 Perkin Elmer instrument in a temperature range between 25° C. and 250° C. with a heating rate of 10° C./min.
# All the TGA experiments were conducted with a TGA 7 Perkin Elmer instrument in a temperature range between 39° C. and 310° C. with a heating rate of 10° C./min.
# PXRD, DSC, TGA and IR analyses were obtained for Bupropion Hydrobromide Polymorph Form I, Form II, Form III, Form IV, Form V, Form VI, and Form VII. PXRD analyses were obtained for the amorphous form. With respect to the PXRD analyses, the Peak List is shown for Form I, Form II, Form III, Form IV, Form V, Form VI, Form VII and the amorphous form in Table 56, Table 57, Table 58, Table 59, Table 60, Table 61, Table 62 and Table 63 respectively.
# [4] = Precipitation from oversaturated solution at 100° C., cooling rate 0.45° C./min
# Protocol: Bupropion hydrobromide Form I was dissolved at 100° C. in solvent to obtain the oversaturated solution. The cooling rate applied was 0.45° C./min. The samples were filtered and analyzed by X-ray diffraction. Form I converts into Form VI using 1-Propanol, and into Form V using 1,4-Dioxane. The other experiments yield only Form I. See Table 55 for Form I precipitation results by oversaturated solution. […]
# [5] = Slurries in 2-propanol at room temperature, 50° C. and 80° C.; conditions: form by XRD
# Protocol: 0.050 g of Form I were suspended in 4 ml of solvent and stirred at room temperature. for 1 week (7 days). The sample was filtered and analyzed by X-ray diffraction.
# 0.040 g of Form I+0.040 g of Form II were suspended in 4 ml of solvent and stirred at room temperature for 1 week (7 days). The sample was filtered and analyzed by X-ray diffraction experiments.
# 0.050 g of Form II were suspended in 4 ml of solvent and stirred at room temperature for 1 week (7 days). The sample was filtered and analyzed by X-ray diffraction experiments.
# 0.050 g of Form I were suspended in 4 ml of solvent and stirred at 50° C. for 1 Week (7 days). The sample was filtered and analyzed by X-ray diffraction experiments.
# 0.040 g of Form I+0.040 g of Form II were suspended in 4 ml of solvent and stirred at 50° C. for 1 week (7 days). The sample was filtered and analyzed by X-ray diffraction experiments.
# Form I+Form II were suspended in solvent and stirred at 80° C. for 14 hours. The sample was filtered and analyzed by X-ray diffraction experiments. […] Slurry in 2-propanol at 80° C. is an atypical experiment because if we consider the boiling point of the solvent, it could be defined as a combination between a slurry and precipitation experiment. Form I was obtained during the precipitation from supersaturated solution by 2-propanol. However the high temperature and the reflux produce the energetic conditions needed by the stable crystal form (Form II) to convert to the metastable crystal form (Form I).
# [6] = Stability tests on bupropion hydrobromide polymorphs in humidity chamber (XRD pattern); conditions: 40° C., 85% R.H., open sample-holder
# Protocol: Stability tests were performed on bupropion hydrobromide Form I, Form II, Form III, Form IV, Form V and Form VI. The powders were stored in a controlled atmosphere (85% R.H.) at 40° C. Form I and Form II were stored for 7 and 30 days respectively, while the other forms were stored only for 30 days. The sample was positioned on the sample-holder which was introduced, without any cover, into the humidity chamber at 40° C. The layer of the sample on the sample-holder was about 0.5 cm.
# In addition, stability tests were performed on bupropion hydrobromide Form VII.
# [7] = Precipitation by anti-solvent (ethyl acetate) addition at room temperature
# Source text: The samples were filtered and analyzed by X-ray diffraction. Form I converts into Form II using chloroform, and also with benzyl alcohol. The other experiments yield only Form I. See Table 54 for Form I precipitation results by anti-solvent addition.
compound,measurement,setting,value
"Br.CC(NC(C)(C)C)C(=O)c1cccc(Cl)c1 (stereo not shown) [Bupropion hydrobromide, 3′-chloro-2-t-butylamino-1-propiophenone hydrobromide]",% potency compared to the bupropion hydrochloride salt,[1],generally higher
same,amount of impurities compared to the bupropion hydrochloride salt,[1],generally lower
same,amount of degradation (bupropion degradation impurities) versus bupropion hydrochloride,[2],lowest amount of degradation
"Br.CC(NC(C)(C)C)C(=O)c1cccc(Cl)c1 (single isomer, unassigned) [Form I]",TGA (mass change),[3]; successive mass-loss steps listed per polymorph,−100.04%
same,DSC (onset ° C.),[3]; successive thermal events listed per polymorph,236.81 °C
same,Precipitation Result,"[4]; solvent 1,4-Dioxane",Form V
same,Precipitation Result,[4]; solvent 1-Butanol,Form I
same,Precipitation Result,[4]; solvent 1-Methyl-2-Pyrrolidone,Form I
same,Precipitation Result,[4]; solvent 1-Propanol,Form VI
same,Precipitation Result,[4]; solvent 2-Methoxy Ethanol,Form I
same,Precipitation Result,[4]; solvent 2-Methyl-1-Propanol,Form I
same,Precipitation Result,[4]; solvent (±)2-Butanol,Form I
same,Precipitation Result,[4]; solvent Dimethyl formamide,Form I
same,Precipitation Result,[4]; solvent Dimethyl sulfoxyde,Form I
same,Precipitation Result,[4]; solvent Nitromethane,Form I
same,Precipitation Result,[4]; solvent Water,Form I
same,Precipitation Result,[4]; solvent p-Xylene,Form I
same,Slurry result in 2-propanol,"[5]; 50° C., 1 week (7 days)",converted to Form II
same,Slurry result in 2-propanol,"[5]; mixture Form I+Form II, 80° C., 14 hours",remained as Form I
same,Slurry result in 2-propanol,"[5]; room temperature, 1 week (7 days)",converted to Form II
same,XRD pattern / crystal form after storage,[6]; 7 days,did not show modification
same,XRD pattern / crystal form after storage,[6]; 30 days,did not show modification
same,Precipitation Result,[7]; solvent 1-Butanol,Form I
same,Precipitation Result,[7]; solvent 1-Methyl-2-Pyrrolidone,Form I
same,Precipitation Result,[7]; solvent 1-Propanol,Form I
same,Precipitation Result,[7]; solvent 2-Methoxy Ethanol,Form I
same,Precipitation Result,[7]; solvent 2-Methyl-1-Propanol,Form I
same,Precipitation Result,[7]; solvent 2-Propanol,Form I
same,Precipitation Result,[7]; solvent Benzyl Alcohol,Form II
same,Precipitation Result,[7]; solvent Chloroform,Form II
same,Precipitation Result,[7]; solvent Dichloromethane,Form I
same,Precipitation Result,[7]; solvent Dimethylformamide,Form I
same,Precipitation Result,[7]; solvent Ethanol,Form I
same,Precipitation Result,[7]; solvent Methanol,Form I
